Results on one molecule are retold here after article PMC5803267, “A small molecule inhibitor of Rheb selectively targets mTORC1 signaling” (Nature Communications, 2018).

Test [1] deals with S473pAKT (mTORC2 activity) in MCF-7 cells. In words: S473pAKT AlphaLISA assay in MCF-7 cells. It is filed as cell-based, human. The note with it: MCF-7, replete conditions, 120 min, dose-dependent. From the text: We next evaluated the activity of NR1 in cell culture. Selective inhibition of mTORC1 in cells produces a specific signaling signature characterized by a reduction in phosphorylation of the mTORC1 substrates S6K1 and 4E-BP1 and increase in phosphorylation of AKT, catalyzed by mTORC2. This distinctive profile reflects the relief of a feedback loop where active S6K1 directly phosphorylates IRS1, resulting in the degradation of IRS1 and subsequent reduction of growth factor signaling from RTKs to downstream effectors such as AKT[1]. Conversely, reduction in ^T389pS6K1 is expected to lead to an increase in ^S473pAKT levels. We used AlphaLISA assays to detect ^T389pS6K1 and ^S473pAKT in MCF-7 cells. […]
Evaluation of NR1 in MCF-7 under replete conditions. […] The indicated phosphoproteins were detected using AlphaLISA assays for T389pS6K1 (reflecting mTORC1 activity) and S473pAKT (reflecting mTORC2 activity). […]
The compounds were added to the kinase reaction mixture by Acoustic technology (Echo550; nanoliter range) and incubated for 20 min at room temperature before the addition of 100 µM 33P-ATP. The reaction was incubated for 2 h at room temperature, and kinase activity was detected by a P81 filter- […]
AlphaLISA assays. […] The AlphaLISA protocol was performed in 384-well plates as instructed by Perkin Elmer, and the plates were read on an EnVision plate reader. […]
In general terms: Bead proximity is the source of the signal in Alpha formats.

Test [2] addresses T1, FLAG-Rheb / myc-mTOR interaction (Homo sapiens, UniProt Q15382).
T1 construct: expressed in transfected cells
As to the kind of experiment: Co-immunoprecipitation of overexpressed FLAG-Rheb and myc-mTOR. It is filed as cell-based. Conditions: review-only material. An excerpt: Response: We agree with Reviewer 2 and have included a brief discussion on the potential effects of chronic Rheb inhibition in the discussion section (p. 25).
“As with any new pharmacological agent, the anticipated side effects will need to be considered. The only data available from the literature that may help in understanding the potential side-effects of reducing Rheb activity come from genetic knock-out studies which, because of their inherent impacts on developmental and other effects, cannot be directly related to what might be expected following pharmacological inhibition. Thus, careful development of a novel Rheb inhibitor would have to take into account the potential organ systems that may be impacted, such as neurological63, 64 and […]
Below is a list of concerns that would need to be addressed in order for this work to be considered for publication in Nature Communications.
1. The authors state that it is “conceivable that portions of NR1 positioned outside the Rheb binding pocket sterically block the interaction with mTORC1. Given that the authors have access to recombinant Rheb and mTOR protein, it is unclear why there is no direct evidence that NR1 can inhibit their interaction. Alternatively, the effects of NR1 on Rheb-mTOR interactions could be shown in cells through co-IP. […]

The structures appear in SMILES notation.

T1 sequence (Q15382 1-181 limits assumed): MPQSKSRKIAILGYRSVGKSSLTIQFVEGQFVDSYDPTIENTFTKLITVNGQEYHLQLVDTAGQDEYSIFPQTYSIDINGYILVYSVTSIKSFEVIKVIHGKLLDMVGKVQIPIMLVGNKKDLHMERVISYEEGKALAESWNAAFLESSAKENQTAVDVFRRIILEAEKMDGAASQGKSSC

With `CN(C)C(=O)c1ccc(Cn2c(C(=O)O)cc3c(Br)cc(Sc4ccc(Cl)c(Cl)c4)cc32)cc1` [NR1, 4-bromo-6-(3,4-dichlorophenylthio)-1-(4-(dimethylcarbamoyl)benzyl)-1H-indole-2-carboxylic acid], in test [1], the “phosphorylation of S473pAKT” value is on record as “increased the phosphorylation”. In addition, the Rheb-mTOR interaction result in test [2] was “does not modulate”.
